From PubChem BioAssay AID2060492 (Molecular Pharmacology Branch, DTP, NCI, 2025)

Test system: 695427-040-R-J1-PDC complex spheroids, viability percent T/C
Test: Anticancer human tumor 695427-040-R-J1-PDC patient-derived colon adenocarcinoma cell line growth inhibition [GQUAD]
Settings: for IC50: curve of first compound; for viability, T/C: stronger effect = lower value; active = viability on the fitted dose curve at most 10% of control; inactive = the rest
In short: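 Multi-cell-type spheroids of tumor cells with HUVEC and mesenchymal stem cells, treated with drug combinations. Concentrations descend in half-log steps from near clinical Cmax, or from 10 microM where Cmax is unknown; viability read-out.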

[1] = second compound 0.0316 µM, first compound 0.0316 µM
[2] = second compound 0.0316 µM, first compound 0.1 µM
[3] = second compound 0.0316 µM, first compound 0.316 µM
[4] = second compound 0.0316 µM, first compound 1 µM
[5] = second compound 0.0316 µM, first compound 3.16 µM
[6] = second compound 0.0316 µM, first compound 10 µM
[7] = second compound 0.1 µM, first compound 0.0316 µM
[8] = second compound 0.1 µM, first compound 0.1 µM
[9] = second compound 0.1 µM, first compound 0.316 µM
[10] = second compound 0.1 µM, first compound 1 µM
[11] = second compound 0.1 µM, first compound 3.16 µM
[12] = second compound 0.1 µM, first compound 10 µM
[13] = second compound 0.316 µM, first compound 0.0316 µM
[14] = second compound 0.316 µM, first compound 0.1 µM
[15] = second compound 0.316 µM, first compound 0.316 µM
[16] = second compound 0.316 µM, first compound 1 µM
[17] = second compound 0.316 µM, first compound 3.16 µM
[18] = second compound 0.316 µM, first compound 10 µM
[19] = second compound 1 µM, first compound 0.0316 µM
[20] = second compound 1 µM, first compound 0.1 µM
[21] = second compound 1 µM, first compound 0.316 µM
[22] = second compound 1 µM, first compound 1 µM
[23] = second compound 1 µM, first compound 3.16 µM
[24] = second compound 1 µM, first compound 10 µM
[25] = second compound 3.16 µM, first compound 0.0316 µM
[26] = second compound 3.16 µM, first compound 0.1 µM
[27] = second compound 3.16 µM, first compound 0.316 µM
[28] = second compound 3.16 µM, first compound 1 µM
[29] = second compound 3.16 µM, first compound 3.16 µM
[30] = second compound 3.16 µM, first compound 10 µM
[31] = second compound 10 µM, first compound 0.0316 µM
[32] = second compound 10 µM, first compound 0.1 µM
[33] = second compound 10 µM, first compound 0.316 µM
[34] = second compound 10 µM, first compound 1 µM
[35] = second compound 10 µM, first compound 3.16 µM
[36] = second compound 10 µM, first compound 10 µM
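Note: spheroids exposed to compounds for seven days before readout.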

CC1COCCN1c1cc(-c2ccnn2C)c2ccnc(-c3ccn[nH]3)c2n1 (stereo not given) + Cc1cnc(CNC(=O)c2c(=O)c3ccc(N4CCCN(C)CC4)nc3n3c2sc2ccccc23)cn1
68.4 nM: IC50 (second compound 0.1 µM)
51.9 nM: IC50 (second compound 1 µM)
< 31.6 nM: IC50 (second compound 3.16 µM) | IC50 (second compound 10 µM)
120 nM: IC50 (second compound 0.0316 µM)
inactive: viability, T/C [1] 62.7% | viability, T/C [2] 52% | viability, T/C [3] 38.8% | viability, T/C [4] 29.9% | viability, T/C [5] 28.1% | viability, T/C [6] 26.6% | viability, T/C [7] 59.9% | viability, T/C [8] 44.5% | viability, T/C [9] 36.2% | viability, T/C [10] 25.6% | viability, T/C [11] 29.4% | viability, T/C [12] 29.2% | viability, T/C [13] 69.3% | viability, T/C [14] 43.2% | viability, T/C [15] 37.3% | viability, T/C [16] 28% | viability, T/C [17] 30% | viability, T/C [18] 24.9% | viability, T/C [19] 58.8% | viability, T/C [20] 35.6% | viability, T/C [21] 34.1% | viability, T/C [22] 22.7% | viability, T/C [23] 27.7% | viability, T/C [24] 14.8% | viability, T/C [25] 21.8% | viability, T/C [26] 31.4% | viability, T/C [27] 28.9% | viability, T/C [28] 20.6% | viability, T/C [29] 20.5% | viability, T/C [30] 11.5% | viability, T/C [31] 24.9% | viability, T/C [32] 19.6% | viability, T/C [33] 24.8% | viability, T/C [34] 16.6% | viability, T/C [35] 13.6%
active: viability, T/C [36] 1.36%
79.2 nM: IC50 (second compound 0.316 µM)

O=c1[nH]cc(F)c(=O)[nH]1 + CN(C)c1ccc(Nc2c3ccc(NC(=O)CCN4CCCC4)cc3nc3cc(NC(=O)CCN4CCCC4)ccc23)cc1
inactive: viability, T/C [1] 101% | viability, T/C [2] 90.5% | viability, T/C [3] 90.5% | viability, T/C [4] 92.6% | viability, T/C [5] 95.5% | viability, T/C [6] 97.5% | viability, T/C [7] 103% | viability, T/C [8] 90.1% | viability, T/C [9] 94.9% | viability, T/C [10] 83.8% | viability, T/C [11] 99.8% | viability, T/C [12] 91.5% | viability, T/C [13] 106% | viability, T/C [14] 100% | viability, T/C [15] 99.7% | viability, T/C [16] 92.8% | viability, T/C [17] 94.7% | viability, T/C [18] 94.5% | viability, T/C [19] 103% | viability, T/C [20] 96.9% | viability, T/C [21] 98% | viability, T/C [22] 96.9% | viability, T/C [23] 97.7% | viability, T/C [24] 92.5% | viability, T/C [25] 92.1% | viability, T/C [26] 100% | viability, T/C [27] 90.3% | viability, T/C [28] 88.3% | viability, T/C [29] 90.5% | viability, T/C [30] 91% | viability, T/C [31] 87.8% | viability, T/C [32] 92.6% | viability, T/C [33] 78% | viability, T/C [34] 82.4% | viability, T/C [35] 85.7% | viability, T/C [36] 83.4%
> 10000 nM: IC50 (second compound 0.0316 µM) | IC50 (second compound 0.1 µM) | IC50 (second compound 0.316 µM) | IC50 (second compound 1 µM) | IC50 (second compound 3.16 µM) | IC50 (second compound 10 µM)

CC1COCCN1c1cc(C2(O)CC3CCC(C2)O3)c2cnn(-c3ccn[nH]3)c2n1 (stereo not given) + Cc1[nH]c2ccc(F)cc2c1-c1nc2c3cccnc3c3ncccc3c2[nH]1
455 nM: IC50 (second compound 10 µM)
569 nM: IC50 (second compound 0.316 µM)
590 nM: IC50 (second compound 0.1 µM)
290 nM: IC50 (second compound 1 µM)
735 nM: IC50 (second compound 0.0316 µM)
253 nM: IC50 (second compound 3.16 µM)
inactive: viability, T/C [1] 83.2% | viability, T/C [2] 84.2% | viability, T/C [3] 65.7% | viability, T/C [4] 42.5% | viability, T/C [5] 36% | viability, T/C [6] 24.6% | viability, T/C [7] 93.8% | viability, T/C [8] 77.5% | viability, T/C [9] 70.4% | viability, T/C [10] 31.4% | viability, T/C [11] 37.6% | viability, T/C [12] 28.1% | viability, T/C [13] 85.2% | viability, T/C [14] 64% | viability, T/C [15] 60.6% | viability, T/C [16] 41.7% | viability, T/C [17] 37.5% | viability, T/C [18] 30.2% | viability, T/C [19] 86.2% | viability, T/C [20] 55.8% | viability, T/C [21] 55.2% | viability, T/C [22] 33.6% | viability, T/C [23] 41% | viability, T/C [24] 21.2% | viability, T/C [25] 67% | viability, T/C [26] 55.8% | viability, T/C [27] 50.9% | viability, T/C [28] 34.2% | viability, T/C [29] 33.2% | viability, T/C [30] 17.4% | viability, T/C [31] 59% | viability, T/C [32] 59.8% | viability, T/C [33] 61.7% | viability, T/C [34] 27.9% | viability, T/C [35] 30.4% | viability, T/C [36] 22.3%

O=C(NO)c1cnc(N2CCN(S(=O)(=O)c3ccc4ccccc4c3)CC2)nc1 + Cc1[nH]c2ccc(F)cc2c1-c1nc2c3cccnc3c3ncccc3c2[nH]1
inactive: viability, T/C [1] 90.4% | viability, T/C [2] 106% | viability, T/C [3] 94.3% | viability, T/C [4] 87.5% | viability, T/C [5] 78.7% | viability, T/C [6] 74.7% | viability, T/C [7] 98.4% | viability, T/C [8] 91.1% | viability, T/C [9] 83% | viability, T/C [10] 87% | viability, T/C [11] 81.3% | viability, T/C [12] 68.5% | viability, T/C [13] 99.1% | viability, T/C [14] 89.4% | viability, T/C [15] 81.9% | viability, T/C [16] 82.6% | viability, T/C [17] 80.5% | viability, T/C [18] 65.6% | viability, T/C [19] 95% | viability, T/C [20] 86% | viability, T/C [21] 84.8% | viability, T/C [22] 82% | viability, T/C [23] 77.9% | viability, T/C [24] 61.5% | viability, T/C [25] 76.5% | viability, T/C [26] 71.2% | viability, T/C [27] 71.2% | viability, T/C [28] 73.5% | viability, T/C [29] 57.3% | viability, T/C [30] 54.5% | viability, T/C [31] 69.6% | viability, T/C [32] 73.1% | viability, T/C [33] 73.8% | viability, T/C [34] 60.5% | viability, T/C [35] 54.3% | viability, T/C [36] 50.5%
> 10000 nM: IC50 (second compound 0.0316 µM) | IC50 (second compound 0.1 µM) | IC50 (second compound 0.316 µM) | IC50 (second compound 1 µM) | IC50 (second compound 3.16 µM) | IC50 (second compound 10 µM)

CC1COCCN1c1cc(-c2ccnn2C)c2ccnc(-c3ccn[nH]3)c2n1 (stereo not given) + CN(C)c1ccc(Nc2c3ccc(NC(=O)CCN4CCCC4)cc3nc3cc(NC(=O)CCN4CCCC4)ccc23)cc1
749 nM: IC50 (second compound 3.16 µM)
1240 nM: IC50 (second compound 0.316 µM)
1250 nM: IC50 (second compound 0.0316 µM)
inactive: viability, T/C [1] 95.2% | viability, T/C [2] 78.8% | viability, T/C [3] 63% | viability, T/C [4] 51% | viability, T/C [5] 44.9% | viability, T/C [6] 39.4% | viability, T/C [7] 100% | viability, T/C [8] 75.9% | viability, T/C [9] 63.9% | viability, T/C [10] 52% | viability, T/C [11] 45.3% | viability, T/C [12] 39.1% | viability, T/C [13] 87.7% | viability, T/C [14] 76.3% | viability, T/C [15] 56.3% | viability, T/C [16] 49.3% | viability, T/C [17] 46.8% | viability, T/C [18] 42.4% | viability, T/C [19] 96.7% | viability, T/C [20] 81.9% | viability, T/C [21] 60.3% | viability, T/C [22] 49.7% | viability, T/C [23] 45.9% | viability, T/C [24] 39.1% | viability, T/C [25] 89.3% | viability, T/C [26] 74.5% | viability, T/C [27] 55.5% | viability, T/C [28] 48.9% | viability, T/C [29] 43.8% | viability, T/C [30] 39.9% | viability, T/C [31] 86% | viability, T/C [32] 66.1% | viability, T/C [33] 50.5% | viability, T/C [34] 46.8% | viability, T/C [35] 40.2% | viability, T/C [36] 37%
454 nM: IC50 (second compound 10 µM)
1360 nM: IC50 (second compound 0.1 µM)
942 nM: IC50 (second compound 1 µM)
